{"source": "patent US20180338952A1", "about": "“COMPOSITIONS AND METHODS FOR TREATING AND DIAGNOSING OCULAR DISORDERS” (Translatum Medicus Inc., priority 2014, published 2018)", "key": {"[1]": {"tested_on": "circulating monocytes and resident macrophages", "assay": "Monocyte/macrophage depletion in the NaIO3 model, FAF/DNIRA pattern", "type": "in vivo, rat", "details": "for NaIO3-induced pattern of FAF (and DNIRA): macrophage/monocyte depletion, Day 3 and Day 7 after NaIO3", "text": "To determine the identity of the autofluorescent cells that coincide with the reticular pattern of FAF, excised retina were stained for with markers of the innate immune system, avoiding the 488 nm channel. Iba1 is a pan-microglial/macrophage marker and in the rat retina; antibodies against it identify the major phagocytic cell populations. […] Further, when compared against photoreceptor nuclear staining, this curvilinear pattern is seen to lie interposed between folds of the deformed ONL. This pattern of Iba1^+ cells corresponds with the pattern of hyperfluorescence observed in vivo by FAF imaging, and with the pattern of autofluorescent cells in excised retina. […] Importantly, at 7 days after NaIO3, all RPE cells are absent from the posterior eye cup, confirming that these cells cannot be responsible for the observed FAF. Also, identification of the autofluorescent cells as phagocytic was confirmed by comparison of imaging to preparations in which monocyte/macrophage depletion has been undertaken. Such depletion was achieved by treatment with gadolinium chloride (GAD).\nFurther, to confirm that hyperfluorescent FAF or abnormal patterns of FAF and hyperfluorescent DNIRA correlated or co-localized with the distribution of phagocytic cells, the circulating macrophage/monocyte population was depleted using gadolinium chloride (GAD or GdCl3), a rare earth metal salt which depresses macrophage activity. […] This was evident qualitatively both within the geographic areas of damage, and at its border (FIGS. 8A-C)."}, "[2]": {"tested_on": "retinal function (b-wave amplitude)", "assay": "Electroretinography toxicity study of systemic ICG", "details": "high (5.0 mg/kg) and low (0.35 mg/kg) systemic dose vs PBS; three weeks following injection", "protocol": "Electroretinography (ERG) was performed to evaluate potential toxicity.\nElectroretinography (ERG): animals receiving ICG or PBS were evaluated using the Espion (DiagnosysLLC, USA) mini-Ganzfeld ERG system. Following anesthesia, animals were placed on an electrically silent heating pad and gold coil electrodes placed on the corneal surface after application of GenTeal lubricating drops. Following a short train of dim flashes (0.01 candela s/m^2, 1.0 Hz), a scotopic b-wave amplitude was evaluated using a single bright flash (3 candela s/m^2) that we previously determined consistently produces a response close to the maximum b-wave amplitude. Student t-test was used to compare post-injection amplitudes against baseline (prior to injection)."}, "[3]": {"biological_target": "complement factor D (CFD) (Homo sapiens, UniProt P00746)", "sequence (P00746 26-253)": "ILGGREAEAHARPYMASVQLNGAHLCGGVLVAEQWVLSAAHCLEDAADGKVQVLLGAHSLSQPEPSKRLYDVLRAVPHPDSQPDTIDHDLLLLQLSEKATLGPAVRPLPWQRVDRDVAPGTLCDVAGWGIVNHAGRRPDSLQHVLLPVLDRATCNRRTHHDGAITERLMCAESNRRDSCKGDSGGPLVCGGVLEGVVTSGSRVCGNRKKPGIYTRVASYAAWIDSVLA", "details": "phase II, 18 month period, patients; cited from earlier work"}}, "note": "“Also recorded” adds a separate entry of the source.", "data": [{"molecule": "[Cl][Gd]([Cl])[Cl]", "note": "[GAD, gadolinium chloride]", "values": [{"measurement": "area of damage", "setting": "[1]; 7 days after NaIO3 and simultaneous GAD depletion", "value": "smaller areas of damage"}, {"measurement": "NaIO3-induced pattern of FAF (and DNIRA)", "setting": "[1]", "value": "far less well defined reticular patterns of FAF; also recorded: profound alteration; also recorded: less well-demarcated borders"}, {"measurement": "NaIO3-induced pattern of FAF (and DNIRA)", "setting": "[1]; listed as gadolinium", "value": "alters the FAF pattern"}]}, {"molecule": "CC1(C)C(/C=C/C=C/C=C/C=C2\\N(CCCCS(=O)(=O)O)c3ccc4ccccc4c3C2(C)C)=[N+](CCCCS(=O)(=O)[O-])c2ccc3ccccc3c21", "note": "[ICG, indocyanine green]", "values": [{"measurement": "change in ERG b-wave amplitude", "setting": "[2]", "value": "no statistically significant change"}]}, {"molecule": "Lampilizumab: complement factor D (CFD) inhibitor; anti-factor D antibody (Genentech)", "values": [{"measurement": "growth (expansion) of geographic atrophy", "setting": "[3]", "value": "can slow the growth"}]}]}
